“Also recorded” adds a separate entry of the source.
Assays:
[1] = test system: aerugine (10 μM) cytotoxicity in LUHMES cultures (d6); test: Modulation of aerugine-induced neurodegeneration by mechanistic inhibitors; type: cell-based, human; conditions: 24 h; for prevention of aerugine-induced cell death (viability) / maximal prevention of aerugine neurotoxicity: inhibitor 15 min prior to 10 μM aerugine
Method: (§1) For toxicity assessment of mature LUHMES neurons, precursor cells were pre-differentiated for 2 days in cell culture flasks pre-coated as described above and differentiation medium. Then, 45′000 cells per well were seeded in differentiation medium into standard 96-well plates pre-coated as described above. They were incubated at 37 °C and 5% CO2 for 4 days before compound treatment. At this time, cells were >99% post-mitotic and had established an extensive neurite network ([Scholz et al., 2011]) The cell viability was assessed via the Calcein/Hoechst readout, the LDH assay and the resazurin reduction assay.
(§2) Neurite area (NA) and viability (V) were assessed as described previously ([Stiegler et al., 2011]). In brief, cells were stained with 1 μM calcein-AM and 1 μg/ml H-33342 for 30 min at 37 °C and 5% CO2. Image acquisition was performed using an Array-Scan VTI HCS Reader (Cellomics, PA, USA) equipped with a Hamamatsu ORCA-ER camera. 10 fields per well were imaged with 2 channels at 20x magnification (2×2 pixel binning). Excitation/emission wavelengths of 365 ± 50/535 ± 45 nm were used for Hoechst detection in channel 1 and 474 ± 40/535 ± 45 nm were used for calcein detection in channel 2.
Fig. 4. Modulation of aerugine-induced neurodegeneration by mechanistic inhibitors. LUHMES cultures (d6) were used under standard conditions to assess the cytotoxicity of aerugine (10 μM) in the presence of various agents known to interfere with cell death pathways. A Treatment scheme: the respective inhibitors were applied 15 min prior to aerugine treatment (10 μM), and the viability was determined by high-content imaging after 24 h. B Inhibitors were used at different concentrations, as indicated. The main biochemical activity of each agent is indicated in brackets. Data are means ± SEM of at least three biological replicates with 3 technical replicates each. DFP = deferiprone; DFO = deferoxamine; qVD = caspase inhibitor; RIPK = receptor-interacting serine/threonine-protein kinase. For statistical analysis, the lowest concentration of inhibitor that produced the maximal protective effect (red) was compared to the treatment with aerugine alone using a two-tailed t-test (*: p = 0.01). C Exemplary pictures of LUHMES cultures after 24 h treatment: negative control (=DMSO), positive control (=10 μM aerugine), DFP (=20 μM DFP + 10 μM aerugine) and qVD (=5 μM qVD + 10 μM aerugine). Arrows indicate cells with a broken cell membrane (calcein-negative) and condensed nuclei (small H-33342-positive area). Arrow heads indicate disintegrating neurites (chains of calcein-positive blebs).

[2] = test system: human dopaminergic neurons (LUHMES cells); test: Cytotoxicity to mature (d6) LUHMES neurons, calcein-AM & H-33342 high content imaging; type: cell-based; conditions: d6 LUHMES; for cytotoxicity to DAergic neurons (viability): 24 h (24 h and 48 h for purified compounds)
Method: as §1, §2
Nuclei were identified in channel 1 depending on intensity, area, size and shape. Their outlines were expanded by 3.2 μm to define a virtual cell soma area (VCSA), which was bigger than the average cell soma to prevent false positive NAs. All calcein-positive pixels were defined as viable cellular structures (VCSs). The NA was automatically calculated by excluding the VCSAs from the VCSs. Furthermore all nuclei co-localizing with VCSs were defined as alive.

| Compound | prevention of aerugine-induced cell death (viability) [1] | cytotoxicity to DAergic neurons (viability) [2] | maximal prevention of aerugine neurotoxicity [1] | other results |
| --- | --- | --- | --- | --- |
| CC(C)[C@H](NC(=O)c1ccc2ccccc2n1)C(=O)N[C@@H](CC(=O)O)C(=O)COc1c(F)cccc1F [qVD] | completely prevented; also recorded: prevented cell death | – | – | neurite structure in presence of inhibitor ([1]; 10 μM aerugine): damage to the neurites still occurred and lost; optimal concentrations for prevention of cell death ([1]; 10 μM aerugine): 2 to 4 µM |
| O=Cc1csc(-c2ccccc2O)n1 [IQS, aeruginealdehyde] | – | about equipotent with aeruginol | – | concentration range killing DAergic neurons ([2]; within 24 h): 10 to 25 µM |
| O=c1c2ccccc2[se]n1-c1ccccc1 [ebselen] | – | – | 60–90% | – |
| N[C@@H](Cc1ccc(O)c(I)c1)C(=O)O [3-iodo-tyrosine] | had no effect at all | – | – | – |
| CN1C(=O)C(Cc2c[nH]c3ccccc23)NC1=S (stereo not shown) [necrostatin-1] | only slightly attenuated cell death | – | – | – |
| O=CC1CSC(c2ccccc2O)=N1 (stereo not shown) [dhIQS, dihydro-aeruginealdehyde] | – | all toxicity was lost | – | – |
| O=C(O)C1CSC(c2ccccc2O)=N1 (stereo not shown) [DHAA, Dihydroaeruginoic acid, reference compound] | – | all toxicity was lost | – | – |
| CCOC(=O)c1ccc(NC2CCCCC2)c(N)c1 [ferrostatin] | – | – | 60–90% | – |
| N[C@@H](CS)C(=O)O [cysteine] | – | – | 60–90% | – |
| OCc1csc(-c2ccccc2O)n1 [aeruginol] | – | cytotoxic to DAergic neurons in a time- and concentration-dependent manner | – | – |

— paper PMC10666548, “Identification of the bacterial metabolite aerugine as potential trigger of human dopaminergic neurodegeneration” (Environment international, 2023)
